In US10577363B2, “Substituted piperidine compounds” (EPIZYME, INC., priority 2014, dated 2020):

How the values were obtained:
[1] = tested on: esophageal, liver and breast cancer cell lines; settings: several esophageal, dose-dependent; cited from earlier work
SMYD3 [2] = target: T1, SMYD3 (Homo sapiens (Human), UniProt Q9H7B4); assay: SMYD3 biochemical assay (SPA, 3H-SAM methylation of MEKK2 protein substrate)
How it was run: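 Enzyme: untagged full-length human SMYD3 from E. coli; substrate GST-tagged MEKK2 from insect cells. Buffer 25 mM Tris-Cl pH 8.0, 1 mM TCEP, 0.005% BSG/Tween 20. 30 min compound–enzyme preincubation at RT; 3H-SAM/MEKK2 start; stop with cold SAM (100 uM final); SPA readout in cpm.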

SMYD3 [3] = target: T1, SMYD3; assay: SMYD3 cell assay (Trimethyl-MEKK2 In-Cell Western in 293T/17 cells); format: cell-based
How it was run: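 In-Cell Western readout: methanol-fixed cells stained for trimethyl-MEKK2 and flag tag, ratio per well normalized to DMSO and background controls.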

[4] = IC50 values are an average of n = 1 to n = 50, read-out: SMYD3 Biochem IC50*
[5] = IC50 values are an average of n = 1 to n = 50, read-out: SMYD3 Cell IC50*

T1 sequence (Q9H7B4 whole entry): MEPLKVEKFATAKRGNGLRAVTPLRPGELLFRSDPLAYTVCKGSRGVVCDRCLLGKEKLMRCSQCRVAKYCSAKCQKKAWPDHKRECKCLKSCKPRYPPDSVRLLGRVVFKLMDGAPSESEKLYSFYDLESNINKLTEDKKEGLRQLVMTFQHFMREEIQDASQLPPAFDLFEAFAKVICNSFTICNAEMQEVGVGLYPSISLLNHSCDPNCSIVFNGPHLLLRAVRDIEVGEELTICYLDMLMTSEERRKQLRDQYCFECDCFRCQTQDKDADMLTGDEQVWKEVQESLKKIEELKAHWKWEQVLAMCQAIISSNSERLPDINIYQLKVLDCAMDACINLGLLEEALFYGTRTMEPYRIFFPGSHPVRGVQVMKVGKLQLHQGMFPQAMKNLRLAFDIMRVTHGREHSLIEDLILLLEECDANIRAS

Q: For `Cc1cn(CCN2CCN(c3ccccc3-c3cc(C#N)cc(C(=O)NCCCN4CCCC4)c3)CC2)c2ccccc12` [LLY-507], which “inhibition of proliferation of cancer cell lines” value [1] is on record?
A: inhibited the proliferation

Q: For `CN1CCCC[C@H]1CS(=O)(=O)N1[C@@H]2CC[C@H]1C[C@@H](NC(=O)c1cc(C3CC3)on1)C2` [compound 976, 5-cyclopropyl-N-((1R,3S,5S)-8-((((S)-1-methylpiperidin-2-yl)methyl)sulfonyl)-8-azabicyclo[3.2.1]octan-3-yl)isoxazole-3-carboxamide], which IC50 (SMYD3 [2]; [4]) is on record?
A: 105 nM

Q: What about the IC50 (SMYD3 [3]; [5]) of the same molecule?
A: 555 nM

Q: Which results are given for `CN1CC2CCC(C1)N2S(=O)(=O)N1[C@@H]2CC[C@H]1C[C@@H](NC(=O)c1cc(C3CC3)on1)C2` [compound 977, 5-cyclopropyl-N-((1R,3r,5S)-8-((3-methyl-3,8-diazabicyclo[3.2.1]octan-8-yl)sulfonyl)-8-azabicyclo[3.2.1]octan-3-yl)isoxazole-3-carboxamide]?
A: IC50 (SMYD3 [2]; [4]): 107 nM; IC50 (SMYD3 [3]; [5]): 742 nM

Q: Which IC50 (SMYD3 [2]; [4]) does the source give for `CC(C)(NC1CCN(S(=O)(=O)N2[C@@H]3CC[C@H]2C[C@@H](NC(=O)c2cc(C4CC4)on2)C3)CC1)c1ccccc1` [compound 978, 5-cyclopropyl-N-((1R,3r,5S)-8-((4-((2-phenylpropan-2-yl)amino)piperidin-1-yl)sulfonyl)-8-azabicyclo[3.2.1]octan-3-yl)isoxazole-3-carboxamide] here?
A: 117 nM

Q: What about the IC50 (SMYD3 [3]; [5]) of the same molecule?
A: 1330 nM

Q: Which results are given for `CN1CCC[C@H]1CS(=O)(=O)N1[C@@H]2CC[C@H]1C[C@@H](NC(=O)c1cc(C3CC3)on1)C2` [compound 979, 5-cyclopropyl-N-((1R,3S,5S)-8-((((S)-1-methylpyrrolidin-2-yl)methyl)sulfonyl)-8-azabicyclo[3.2.1]octan-3-yl)isoxazole-3-carboxamide]?
A: IC50 (SMYD3 [2]; [4]): 119 nM; IC50 (SMYD3 [3]; [5]): 436 nM

Q: Which results are given for `C[C@H]1C[C@@H](NC(=O)c2cc(C3CC3)on2)CCN1S(=O)(=O)N1CCN(C)C[C@@H]1C` [compound 980, 5-cyclopropyl-N-((2S,4S)-1-(((S)-2,4-dimethylpiperazin-1-yl)sulfonyl)-2-methylpiperidin-4-yl)isoxazole-3-carboxamide]?
A: IC50 (SMYD3 [2]; [4]): 120 nM; IC50 (SMYD3 [3]; [5]): 697 nM

Q: Which results are given for `O=C(N[C@H]1C[C@H]2CC[C@@H](C1)N2S(=O)(=O)[C@@H]1CCCN(CCO)C1)c1cc(C2CC2)on1` [compound 981, 5-cyclopropyl-N-((1R,3R,5S)-8-(((R)-1-(2-hydroxyethyl)piperidin-3-yl)sulfonyl)-8-azabicyclo[3.2.1]octan-3-yl)isoxazole-3-carboxamide]?
A: IC50 (SMYD3 [2]; [4]): 127 nM; IC50 (SMYD3 [3]; [5]): 466 nM

Q: For `CN1CCCC1CS(=O)(=O)N1[C@@H]2CC[C@H]1C[C@@H](NC(=O)c1cc(C3CC3)on1)C2` (stereo partly drawn) [compound 982, 5-cyclopropyl-N-((1R,3r,5S)-8-(((1-methylpyrrolidin-2-yl)methyl)sulfonyl)-8-azabicyclo[3.2.1]octan-3-yl)isoxazole-3-carboxamide], which IC50 (SMYD3 [2]; [4]) is on record?
A: 134 nM

Q: And the IC50 (SMYD3 [3]; [5])?
A: 819 nM

Q: Which results are given for `CC[C@H]1CNCCN1S(=O)(=O)N1CC[C@H](NC(=O)c2cc(C3CC3)on2)C[C@@H]1C` [compound 983, 5-cyclopropyl-N-((2S,4S)-1-(((S)-2-ethylpiperazin-1-yl)sulfonyl)-2-methylpiperidin-4-yl)isoxazole-3-carboxamide]?
A: IC50 (SMYD3 [2]; [4]): 142 nM; IC50 (SMYD3 [3]; [5]): 931 nM

Q: With `C[C@H]1C[C@@H](NC(=O)c2cc(C3CC3)on2)CCN1S(=O)(=O)N1CCNC[C@@H]1c1ccccc1` [compound 984, 5-cyclopropyl-N-((2S,4S)-2-methyl-1-(((S)-2-phenylpiperazin-1-yl)sulfonyl)piperidin-4-yl)isoxazole-3-carboxamide] as the molecule, how does the IC50 (SMYD3 [2]; [4]) read?
A: 142 nM

Q: And the IC50 (SMYD3 [3]; [5])?
A: 1850 nM

Q: With `O=C(N[C@H]1C[C@H]2CC[C@@H](C1)N2S(=O)(=O)[C@H]1CCCN(CCO)C1)c1cc(C2CC2)on1` [compound 985, 5-cyclopropyl-N-((1R,3S,5S)-8-(((S)-1-(2-hydroxyethyl)piperidin-3-yl)sulfonyl)-8-azabicyclo[3.2.1]octan-3-yl)isoxazole-3-carboxamide] as the molecule, how does the IC50 (SMYD3 [2]; [4]) read?
A: 155 nM

Q: What about the IC50 (SMYD3 [3]; [5]) of the same molecule?
A: 708 nM

Q: Which results are given for `COCCNCc1ccc(S(=O)(=O)N2[C@@H]3CC[C@H]2C[C@@H](NC(=O)c2cc(C4CC4)on2)C3)cc1` [compound 986, 5-cyclopropyl-N-((1R,3r,5S)-8-((4-(((2-methoxyethyl)amino)methyl)phenyl)sulfonyl)-8-azabicyclo[3.2.1]octan-3-yl)isoxazole-3-carboxamide]?
A: IC50 (SMYD3 [2]; [4]): 156 nM; IC50 (SMYD3 [3]; [5]): 807 nM

Q: Which IC50 (SMYD3 [2]; [4]) does the source give for `CCc1cc(C(=O)N[C@@H]2CCN(S(=O)(=O)c3ccc(C(C)(C)N)cc3)[C@@H](C)C2)no1` [compound 987, N-((2S,4R)-1-((4-(2-aminopropan-2-yl)phenyl)sulfonyl)-2-methylpiperidin-4-yl)-5-ethylisoxazole-3-carboxamide] here?
A: 158 nM

Q: And the IC50 (SMYD3 [3]; [5])?
A: 776 nM

Q: Which IC50 (SMYD3 [2]; [4]) does the source give for `CN(C)C(C)(C)c1ccc(S(=O)(=O)N2[C@@H]3CC[C@H]2C[C@@H](NC(=O)c2cc(C4CC4)on2)C3)cc1` [compound 988, 5-cyclopropyl-N-((1R,3r,5S)-8-((4-(2-(dimethylamino)propan-2-yl)phenyl)sulfonyl)-8-azabicyclo[3.2.1]octan-3-yl)isoxazole-3-carboxamide] here?
A: 158 nM

Q: And the IC50 (SMYD3 [3]; [5])?
A: 1670 nM

Q: With `C[C@H]1C[C@@H](NC(=O)c2cc(C3CC3)on2)CCN1S(=O)(=O)CC1CCCCN1` (stereo partly drawn) [compound 989, 5-cyclopropyl-N-((2S,4S)-2-methyl-1-((piperidin-2-ylmethyl)sulfonyl)piperidin-4-yl)isoxazole-3-carboxamide] as the molecule, how does the IC50 (SMYD3 [2]; [4]) read?
A: 175 nM

Q: And the IC50 (SMYD3 [3]; [5])?
A: 1160 nM

Q: Which results are given for `O=C(N[C@H]1C[C@H]2CC[C@@H](C1)N2S(=O)(=O)N1CC2CCC(C1)N2CCC(F)(F)F)c1cc(C2CC2)on1` [compound 990, 5-cyclopropyl-N-((1R,3r,5S)-8-((8-(3,3,3-trifluoropropyl)-3,8-diazabicyclo[3.2.1]octan-3-yl)sulfonyl)-8-azabicyclo[3.2.1]octan-3-yl)isoxazole-3-carboxamide]?
A: IC50 (SMYD3 [2]; [4]): 184 nM; IC50 (SMYD3 [3]; [5]): 935 nM

Q: For `CCC[C@H]1C[C@@H](NC(=O)c2cc(C3CC3)on2)CCN1S(=O)(=O)CC1CCN(C)CC1` [compound 991, 5-cyclopropyl-N-((2S,4S)-1-(((1-methylpiperidin-4-yl)methyl)sulfonyl)-2-propylpiperidin-4-yl)isoxazole-3-carboxamide], which IC50 (SMYD3 [2]; [4]) is on record?
A: 187 nM

Q: What about the IC50 (SMYD3 [3]; [5]) of the same molecule?
A: 2190 nM

Q: With `C[C@H]1CN(S(=O)(=O)N2CC[C@H](NC(=O)c3cc(C4CC4)on3)C[C@@H]2C)[C@@H](C)CN1` [compound 992, 5-cyclopropyl-N-((2S,4S)-1-(((2S,5S)-2,5-dimethylpiperazin-1-yl)sulfonyl)-2-methylpiperidin-4-yl)isoxazole-3-carboxamide] as the molecule, how does the IC50 (SMYD3 [2]; [4]) read?
A: 188 nM

Q: What about the IC50 (SMYD3 [3]; [5]) of the same molecule?
A: 1120 nM

Q: Which IC50 (SMYD3 [2]; [4]) does the source give for `CC(C)Cc1cc(C(=O)N[C@H]2C[C@H]3CC[C@@H](C2)N3S(=O)(=O)CC2CCN(C)CC2)no1` [compound 993, 5-isobutyl-N-((1R,3r,5S)-8-(((1-methylpiperidin-4-yl)methyl)sulfonyl)-8-azabicyclo[3.2.1]octan-3-yl)isoxazole-3-carboxamide] here?
A: 206 nM

Q: What about the IC50 (SMYD3 [3]; [5]) of the same molecule?
A: 2770 nM

Q: Which IC50 (SMYD3 [2]; Table 2A, read-out: SMYD3 Biochem IC50) does the source give for “N-((2S,4S)-1-(3,8-diaza-bicyclo[3.2.1]octan-8-ylsulfonyl)-2-methylpiperidin-4-yl)-5-cyclopropylisoxazole-3-carboxamide [Cpd. No. 555]” here?
A: 3.7 nM

Q: And the IC50 (SMYD3 [3]; Table 2A, read-out: SMYD3 Cell IC50)?
A: 23.9 nM
